From the NIST ThermoML archive (doi:10.1021/acs.jced.7b00297)

Tests used:
[1] = 298.15 K; 101.33 kPa; Liquid; Vibrating tube method
[2] = mn = molality of the nth substance listed, in mol/kg; settings: 84.5 kPa, Liquid; for speed of sound: Single path-length method; for mass density: Vibrating tube method

CCCCn1cc[n+](C)c1.O=S(=O)([O-])C(F)(F)F [1-butyl-3-methylimidazolium trifluoromethanesulfonate]
Settings | mass density [kg/m3]
[1] | 1297.84

CCCCn1cc[n+](C)c1.[Cl-] [1-butyl-3-methylimidazolium chloride] + O
[2]
Settings | mass density, 288.15 K [kg/m3] | mass density, 298.15 K [kg/m3] | mass density, 308.15 K [kg/m3] | mass density, 318.15 K [kg/m3] | speed of sound, 288.15 K [m/s] | speed of sound, 298.15 K [m/s] | speed of sound, 308.15 K [m/s] | speed of sound, 318.15 K [m/s]
m1 = 0.0344 | 999.577 | 997.479 | 994.434 | 990.589 | 1472 | 1501.5 | 1523.9 | 1540.1
m1 = 0.0526 | 999.828 | 997.71 | 994.648 | 990.791 | 1474.7 | 1504 | 1526.1 | 1542
m1 = 0.0926 | 1000.37 | 998.209 | 995.113 | 991.228 | 1480.8 | 1509.3 | 1530.8 | 1546.1
m1 = 0.1181 | 1000.72 | 998.524 | 995.403 | 991.504 | 1485 | 1513.1 | 1534 | 1548.9
m1 = 0.1806 | 1001.56 | 999.3 | 996.124 | 992.177 | 1493.8 | 1520.7 | 1540.7 | 1554.8
m1 = 0.2371 | 1002.33 | 999.998 | 996.773 | 992.785 | 1502.2 | 1528 | 1547.1 | 1560.5
m1 = 0.479 | 1005.59 | 1002.98 | 999.537 | 995.37 | 1535.7 | 1557.1 | 1572.5 | 1582.7
m1 = 0.7374 | 1009.02 | 1006.11 | 1002.43 | 998.079 | 1568.8 | 1586 | 1597.6 | 1604.5

CCCCCCn1cc[n+](C)c1.[Cl-] [1-hexyl-3-methylimidazolium chloride]
Settings | mass density [kg/m3]
[1] | 1042.86
